From US12540118B2, “Dendrene amide compound, bactericide and use thereof” (Jiangsu Flag Chemical Industry Co., Ltd., priority 2020, dated 2026)

Key:
Erysiphe graminis = Erysiphe graminis potting method; assay type: in vivo
Description: The fungicidal activity of the control agents and target compounds are determined. The test and investigation method refers to SOP-SC-1116 Erysiphe graminis potting method in disinfectant rolls written by KANGZHUO and GUBAOGEN in “Standard operation specification for testing biological activity of pesticides”.

succinate dehydrogenase = target: T1, succinate dehydrogenase (Sus scrofa, UniProt A5GZW8+D0VWV4+Q007T0); test: Enzyme activity assay, succinate dehydrogenase (DCIP reduction); assay type: biochemical, porcine; conditions: read-out: Inhibitors (10 μM, SQR)
T1 construct: isolated from porcine hearts; from tissue; host or cells: porcine heart
Description: The inhibitory activities of control agents and target compounds on succinate dehydrogenase are determined.
The enzyme used in this test example is succinate dehydrogenase, which is isolated from porcine hearts.
The test method comprises the following steps: The total volume of the system is 1.8 ml, and the system contained 100 mM Na2HPO4—NaH2PO4 buffer (pH=7.4), 0.3 mM EDTA, 20 mM sodium succinate, 53 μM DCIP (2,6-dichloroindophenol sodium), and 2 nM succinate dehydrogenase. Thermostatic waterbath at 23° C. and magnetic stirring at 600 rpm. The decrease in the light absorption of the substrate DCIP is monitored at a wavelength of 600 nm and experimental points in a linear range are collected. Control substrate consumption not more than 5% of the experimental points. The molar extinction coefficient of DCIP is 21 mM^−1 cm^−1. And calculating the reduction yield of the DCIP in the reaction time, fitting a linear slope, and deducting the baseline slope to obtain the initial reaction speed.

Sphaerotheca fuliginea = Sphaerotheca fuliginea potting method; assay type: in vivo; conditions: 100 mg/L; for pest or weed control at 100 µg/mL: Podosphaera fuliginea, read-out: Sphaerotheca fuliginea control rating
Description: The fungicidal activity of the control agents and target compounds are determined. The test and investigation method refers to SOP-SC-1101 sphaerotheca fuliginea potting method in disinfectant rolls written by KANGZHUO and GUBAOGEN in “Standard operation specification for testing biological activity of pesticides”.

[1] = Blumeria graminis, 100 mg/L, read-out: Erysiphe graminis control rating

T1 sequence (Q0QF01 43-664 partner): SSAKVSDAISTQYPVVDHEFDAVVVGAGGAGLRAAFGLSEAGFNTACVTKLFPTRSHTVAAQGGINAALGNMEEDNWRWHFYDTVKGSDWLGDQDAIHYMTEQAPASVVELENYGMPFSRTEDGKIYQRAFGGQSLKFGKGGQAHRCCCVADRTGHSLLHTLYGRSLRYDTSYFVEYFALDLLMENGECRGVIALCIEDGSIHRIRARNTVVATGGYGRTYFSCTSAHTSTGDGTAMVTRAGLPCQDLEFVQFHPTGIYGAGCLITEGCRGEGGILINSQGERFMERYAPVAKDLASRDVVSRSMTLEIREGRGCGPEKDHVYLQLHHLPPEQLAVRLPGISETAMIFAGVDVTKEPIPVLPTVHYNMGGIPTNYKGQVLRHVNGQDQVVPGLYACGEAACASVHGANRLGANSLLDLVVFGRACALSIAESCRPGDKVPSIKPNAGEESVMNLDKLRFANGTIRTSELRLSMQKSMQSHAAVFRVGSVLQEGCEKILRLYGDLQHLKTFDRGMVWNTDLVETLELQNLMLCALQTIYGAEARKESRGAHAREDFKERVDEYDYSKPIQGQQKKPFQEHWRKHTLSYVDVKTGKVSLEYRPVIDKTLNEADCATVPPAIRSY
T1 sequence (Q007T0 29-280): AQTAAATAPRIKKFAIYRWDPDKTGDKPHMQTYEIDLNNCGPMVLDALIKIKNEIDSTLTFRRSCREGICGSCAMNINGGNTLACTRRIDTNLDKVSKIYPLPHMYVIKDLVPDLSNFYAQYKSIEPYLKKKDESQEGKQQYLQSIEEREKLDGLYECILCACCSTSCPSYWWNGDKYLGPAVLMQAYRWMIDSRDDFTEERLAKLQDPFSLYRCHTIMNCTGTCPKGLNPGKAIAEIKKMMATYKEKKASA
T1 sequence (D0VWV4 30-169): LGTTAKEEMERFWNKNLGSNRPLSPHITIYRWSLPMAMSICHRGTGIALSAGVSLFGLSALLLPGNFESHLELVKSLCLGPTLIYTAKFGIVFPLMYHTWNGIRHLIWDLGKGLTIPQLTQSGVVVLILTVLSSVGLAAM
T1 sequence (A5GZW8 57-159 limits assumed): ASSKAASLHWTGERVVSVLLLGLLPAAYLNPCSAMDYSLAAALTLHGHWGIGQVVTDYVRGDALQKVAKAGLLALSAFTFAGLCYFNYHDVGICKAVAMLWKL

Row | SMILES | inhibition at 10 µM (succinate dehydrogenase) | pest or weed control at 100 µg/mL (Erysiphe graminis; [1]) | pest or weed control at 100 µg/mL (Sphaerotheca fuliginea) | also measured
1 | Cn1nc(C(F)F)c(C(=O)N(CC(=C(Cl)Cl)c2cc(C(F)(F)F)ccc2Cl)C2CC2)c1F [Compound 156] | > 90% | 80 to 100% | 80 to 100% | –
2 | C=C(c1ccc(C(F)(F)F)cc1Cl)C(C)N(C(=O)c1c(C(F)F)nn(C)c1F)C1CC1 (centres unmarked) [Compound 102] | > 90% | 80 to 100% | 80 to 100% | –
3 | C=C(c1cc(F)cc(F)c1)C(C)N(C(=O)c1c(C(F)F)nn(C)c1F)C1CC1 (centres unmarked) [Compound 63] | > 90% | 80 to 100% | 80 to 100% | –
4 | Cn1nc(C(F)F)c(C(=O)N(CC(=C(Cl)Cl)c2ccc(Br)cc2Br)C2CC2)c1F [Compound 134] | > 90% | 80 to 100% | 80 to 100% | –
5 | C=C(c1c(C)cc(C)cc1C)C(C)N(C(=O)c1c(C(F)F)nn(C)c1F)C1CC1 (centres unmarked) [Compound 91] | > 90% | 80 to 100% | 80 to 100% | –
6 | Cn1nc(C(F)F)c(C(=O)N(CC(=C(Cl)Cl)c2cccc(C(F)(F)F)c2Cl)C2CC2)c1F [Compound 157] | > 90% | 80 to 100% | 80 to 100% | –
7 | CC(C(=C(Cl)Cl)c1cccc(C(F)(F)F)c1Cl)N(C(=O)c1c(C(F)F)nn(C)c1F)C1CC1 (centres unmarked) [Compound 210] | > 90% | 80 to 100% | 80 to 100% | –
8 | C=C(c1ccccc1F)C(C)N(C(=O)c1c(C(F)F)nn(C)c1F)C1CC1 (centres unmarked) [Compound 58] | > 90% | 80 to 100% | 80 to 100% | –
9 | Cc1ccccc1C(CN(C(=O)c1c(C(F)F)nn(C)c1F)C1CC1)=C(Cl)Cl [Compound 149] | > 90% | 80 to 100% | 80 to 100% | –
10 | Cc1cc(C)c(C(=C(Cl)Cl)C(C)N(C(=O)c2c(C(F)F)nn(C)c2F)C2CC2)c(C)c1 (centres unmarked) [Compound 196] | > 90% | 80 to 100% | 80 to 100% | –
11 | Cc1ccc(C)c(C(=C(Cl)Cl)C(C)N(C(=O)c2c(C(F)F)nn(C)c2F)C2CC2)c1 (centres unmarked) [Compound 194] | > 90% | 80 to 100% | 80 to 100% | –
12 | Cc1ccc(C(CN(C(=O)c2c(C(F)F)nn(C)c2F)C2CC2)=C(Cl)Cl)c(C)c1 [Compound 140] | > 90% | 80 to 100% | 80 to 100% | –
13 | Cc1cccc(C)c1C(CN(C(=O)c1c(C(F)F)nn(C)c1F)C1CC1)=C(Cl)Cl [Compound 142] | > 90% | 80 to 100% | 80 to 100% | –
14 | Cc1cc(C)cc(C(CN(C(=O)c2c(C(F)F)nn(C)c2F)C2CC2)=C(Cl)Cl)c1 [Compound 152] | > 90% | 80 to 100% | 80 to 100% | –
15 | Cn1nc(C(F)F)c(C(=O)N(CC(=C(Cl)Cl)c2ccc(F)cc2F)C2CC2)c1F [Compound 126] | > 90% | 80 to 100% | 80 to 100% | –
16 | C=C(CN(C(=O)c1c(C(F)F)nn(C)c1F)C1CC1)c1c(F)cc(F)cc1F [Compound 26] | > 90% | 80 to 100% | 80 to 100% | –
17 | C=C(CN(C(=O)c1c(C(F)F)nn(C)c1F)C1CC1)c1c(Cl)cc(Cl)cc1Cl [Compound 19] | > 90% | 80 to 100% | 80 to 100% | –
18 | CC(C(=C(Cl)Cl)c1ccc(C(F)(F)F)cc1Cl)N(C(=O)c1c(C(F)F)nn(C)c1F)C1CC1 (centres unmarked) [Compound 211] | > 90% | 80 to 100% | 80 to 100% | –
19 | CC(C(=C(Cl)Cl)c1cc(Br)ccc1Br)N(C(=O)c1c(C(F)F)nn(C)c1F)C1CC1 (centres unmarked) [Compound 188] | > 90% | 80 to 100% | 80 to 100% | –
20 | CC(C(=C(Cl)Cl)c1cc(Cl)cc(Cl)c1)N(C(=O)c1c(C(F)F)nn(C)c1F)C1CC1 (centres unmarked) [Compound 174] | > 90% | 80 to 100% | 80 to 100% | –
21 | Cc1cc(C)cc(C(=C(Cl)Cl)C(C)N(C(=O)c2c(C(F)F)nn(C)c2F)C2CC2)c1 (centres unmarked) [Compound 205] | > 90% | 80 to 100% | 80 to 100% | –
22 | Cn1nc(C(F)F)c(C(=O)N(CC(=C(Cl)Cl)c2cccc(S(C)(=O)=O)c2)C2CC2)c1F [Compound 160] | > 90% | 80 to 100% | 80 to 100% | –
23 | CC(C(=C(Cl)Cl)c1ccc(Cl)cc1F)N(C(=O)c1c(C(F)F)nn(C)c1F)C1CC1 (centres unmarked) [Compound 206] | > 90% | 80 to 100% | 80 to 100% | –
24 | C=C(CN(C(=O)c1c(C(F)F)nn(C)c1F)C1CC1)c1ccc(Br)cc1 [Compound 27] | > 90% | 80 to 100% | 80 to 100% | –
25 | CNC(=O)/C(=N/OC)c1ccccc1CO/N=C(C)/C=C/c1c(Cl)cccc1Cl [Fenaminstrobin, reference compound] | – | – | – | Erysiphe graminis control rating (Erysiphe graminis; 6.25 mg/L): B (70% ≤ B < 80%); Erysiphe graminis control rating (Erysiphe graminis; 25 mg/L): A (80% ≤ A ≤ 100%); Erysiphe graminis control rating (Erysiphe graminis; 100 mg/L): A (80% ≤ A ≤ 100%); Sphaerotheca fuliginea control rating (Sphaerotheca fuliginea): B (70% ≤ B < 80%)
26 | OC(Cc1ccccc1Cl)(Cn1nc[nH]c1=S)C1(Cl)CC1 (centres unmarked) [Prothioconazole, reference compound] | – | 80 to 100% | 70 to 80% | pest or weed control at 6.25 µg/mL (Erysiphe graminis; Blumeria graminis, 6.25 mg/L, read-out: Erysiphe graminis control rating): 70 to 80%; pest or weed control at 25 µg/mL (Erysiphe graminis; Blumeria graminis, 25 mg/L, read-out: Erysiphe graminis control rating): 80 to 100%

More lines, main results first:

Row | inhibition at 10 µM (succinate dehydrogenase) | SMILES | pest or weed control at 100 µg/mL (Erysiphe graminis; [1]) | pest or weed control at 100 µg/mL (Sphaerotheca fuliginea) | also measured
27 | > 90% | C=C(c1cc(Br)ccc1Br)C(C)N(C(=O)c1c(C(F)F)nn(C)c1F)C1CC1 (centres unmarked) [Compound 83] | 80 to 100% | 80 to 100% | –
28 | > 90% | C=C(CN(C(=O)c1c(C(F)F)nn(C)c1F)C1CC1)c1cccc(S(C)(=O)=O)c1 [Compound 49] | 80 to 100% | 80 to 100% | –
29 | > 90% | Cn1nc(C(F)F)c(C(=O)N(CC(=C(Cl)Cl)c2c(F)cc(F)cc2F)C2CC2)c1F [Compound 129] | 80 to 100% | 80 to 100% | –
30 | > 90% | CC(C(=C(Cl)Cl)c1c(F)cc(F)cc1F)N(C(=O)c1c(C(F)F)nn(C)c1F)C1CC1 (centres unmarked) [Compound 182] | 80 to 100% | 80 to 100% | –
31 | > 90% | C=C(CN(C(=O)c1c(C(F)F)nn(C)c1F)C1CC1)c1cccc(Cl)c1 [Compound 16] | 80 to 100% | 70 to 80% | –
32 | > 90% | Cn1nc(C(F)F)c(C(=O)N(CC(=C(Cl)Cl)c2ccc(Br)c(Br)c2)C2CC2)c1F [Compound 138] | 80 to 100% | 80 to 100% | –
33 | > 90% | Cc1cccc(C(=C(Cl)Cl)C(C)N(C(=O)c2c(C(F)F)nn(C)c2F)C2CC2)c1 (centres unmarked) [Compound 192] | 80 to 100% | 80 to 100% | –
34 | > 90% | C=C(CN(C(=O)c1c(C(F)F)nn(C)c1F)C1CC1)c1cc(Cl)cc(Cl)c1 [Compound 2] | 80 to 100% | 80 to 100% | –
35 | > 90% | Cn1nc(C(F)F)c(C(=O)N(CC(=C(Cl)Cl)c2cccc(Br)c2)C2CC2)c1F [Compound 133] | 80 to 100% | 80 to 100% | –
36 | > 90% | CC(C(=C(Cl)Cl)c1c(Cl)cccc1Cl)N(C(=O)c1c(C(F)F)nn(C)c1F)C1CC1 (centres unmarked) [Compound 172] | 80 to 100% | 80 to 100% | –
37 | > 90% | C=C(c1ccccc1Cl)C(C)N(C(=O)c1c(C(F)F)nn(C)c1F)C1CC1 (centres unmarked) [Compound 72] | 80 to 100% | 80 to 100% | –
38 | > 90% | C=C(c1ccc(Cl)c(Cl)c1)C(C)N(C(=O)c1c(C(F)F)nn(C)c1F)C1CC1 (centres unmarked) [Compound 65] | 80 to 100% | 80 to 100% | –
39 | > 90% | C=C(c1cccc(OC)c1)C(C)N(C(=O)c1c(C(F)F)nn(C)c1F)C1CC1 (centres unmarked) [Compound 69] | 80 to 100% | 80 to 100% | –
40 | > 90% | Cn1nc(C(F)F)c(C(=O)N(CC(=C(Cl)Cl)c2cccc(Cl)c2)C2CC2)c1F [Compound 117] | 80 to 100% | 80 to 100% | –
